Experimental findings from ChEMBL document CHEMBL1201862, “PubChem BioAssay data set” (2004) are described below.

Test systems include MDA-MB-435; HCC 2998; EKVX; SF-539; M14; BT-549; U-251; NCI-H23; NCI-H226; UO-31; NCI/ADR-RES; COLO 205; CAKI-1; MDA-MB-231; T47D; Hs-578T.
Holding throughout (assay): DTP human tumour cell line panel, 48 h

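Values below derive from 48-hour exposures of cells grown in 96-well plates, with endpoints linearly interpolated between the two concentrations bracketing the appropriate inhibition level. Abbreviation: GI50, concentration required for 50% inhibition of growth.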 Activity calls are given as the source filed them. No stated cut-off is given here; in the data, active = GI50 up to about 1.1 µM and inactive = higher.

For the molecule `CC(C)c1nccn1Cc1ccc(Cl)cc1Cl`, the GI50 (as a rule, the concentration at which growth is held to half of that of the control) is 49.7 µM (inactive) with MDA-MB-435; 23.4 µM (inactive) with HCC 2998; 25.5 µM (inactive) in the test with EKVX; 61.2 µM (inactive) in the test with SF-539; 38.1 µM (inactive) with M14; 64.1 µM (inactive) with BT-549. In addition, the GI50 is 41.5 µM (inactive) in the test with U-251; 27.4 µM (inactive) with NCI-H23; 22.4 µM (inactive) with NCI-H226; 24.9 µM (inactive) with UO-31; 27 µM (inactive) with NCI/ADR-RES; 29.2 µM (inactive) in the test on COLO 205. The GI50 in the test on CAKI-1 is 53.7 µM (inactive); with MDA-MB-231, 81.5 µM (inactive).

On to `Cc1cccc(NC(=S)N/N=C2\C(=O)Nc3ccccc32)c1`, for which the GI50 in the test on MDA-MB-435 was 80.4 µM (inactive); in the test on HCC 2998 it was > 100 µM (inactive); with EKVX it was 31.3 µM (inactive); in the test with SF-539 it was 48.3 µM (inactive); in the test with M14, 60.8 µM (inactive); in the test on U-251, 61.8 µM (inactive). The GI50 with NCI-H23 is > 100 µM (inactive); in the test with NCI-H226 it was > 100 µM (inactive); in the test on UO-31, 63.2 µM (inactive); in the test on NCI/ADR-RES it was 29.9 µM (inactive); with COLO 205, 78.3 µM (inactive); in the test on T47D, > 100 µM (inactive). The GI50 with CAKI-1 is 38.2 µM (inactive); in the test on MDA-MB-231, > 100 µM (inactive); in the test with Hs-578T, > 100 µM (inactive).

Turning to `O=C(Nc1nc2c(=O)[nH]cnc2s1)c1ccccc1`, the GI50 was 88.5 µM (inactive) in the test with MDA-MB-435; > 100 µM (inactive) in the test on HCC 2998; > 100 µM (inactive) in the test on EKVX; > 100 µM (inactive) in the test on SF-539; > 100 µM (inactive) in the test with BT-549; > 100 µM (inactive) in the test with U-251. In addition, the GI50 is > 100 µM (inactive) with NCI-H23; > 100 µM (inactive) with NCI-H226; 97.9 µM (inactive) with UO-31; > 100 µM (inactive) in the test with NCI/ADR-RES; > 100 µM (inactive) in the test on COLO 205; 43.6 µM (inactive) in the test on CAKI-1. Moreover, the GI50 in the test with Hs-578T is 61.5 µM (inactive).

Consider `Cc1ccc(S(=O)(=O)N(c2ccccc2F)C2CCCCC2O)cc1` (stereo not drawn), for which the GI50 with MDA-MB-435 was 19.4 µM (inactive); with HCC 2998, 74.6 µM (inactive); in the test with EKVX, 35.1 µM (inactive); in the test with SF-539 it was > 100 µM (inactive); with M14, 74.1 µM (inactive); in the test on BT-549 it was 14.6 µM (inactive). The GI50 with U-251 was 46.6 µM (inactive); in the test with NCI-H23, 34.4 µM (inactive); in the test on NCI-H226, > 100 µM (inactive); in the test with UO-31 it was 33.1 µM (inactive); in the test with NCI/ADR-RES it was 42.4 µM (inactive); with COLO 205, 27.2 µM (inactive). The GI50 in the test on MDA-MB-231 was 77.6 µM (inactive); with Hs-578T, 33 µM (inactive).

For `COc1cc([C@@H]2c3cc4c(cc3[C@@H](Nc3ccc(Cl)cc3C(=O)c3ccccc3Cl)[C@H]3COC(=O)[C@H]23)OCO4)cc(OC)c1OC`, the GI50 with MDA-MB-435 was 0.0661 µM (active); with HCC 2998, 0.373 µM (active); with EKVX it was 57.9 µM (inactive); in the test with SF-539, 0.076 µM (active); in the test with M14, 0.303 µM (active); with U-251 it was 0.0998 µM (active). For the same molecule, the GI50 in the test with NCI-H23 is 0.166 µM (active); in the test with NCI-H226, 0.0294 µM (active); in the test on UO-31, 0.344 µM (active); with NCI/ADR-RES, 0.173 µM (active); in the test on COLO 205, 0.267 µM (active); in the test with T47D it was > 100 µM (inactive). Also, the results for the GI50 with CAKI-1, in the test with MDA-MB-231 and in the test with Hs-578T were 0.152 µM (active), 0.39 µM (active) and 0.0241 µM (active), respectively.

For the molecule `Cc1ccc2oc(=O)c(-c3ccccc3)nc2c1`, the GI50 is 19.9 µM (inactive) in the test with HCC 2998; 39.5 µM (inactive) in the test with EKVX; 18.2 µM (inactive) with SF-539; 43.3 µM (inactive) with M14; 24.7 µM (inactive) in the test with NCI-H23; 37.8 µM (inactive) in the test on NCI-H226. For the same molecule, the results for the GI50 in the test with UO-31, with COLO 205 and with CAKI-1 were 27 µM (inactive), 24.5 µM (inactive) and 28.9 µM (inactive), respectively.

Consider `CC1(C)C2CCC1(C)[C@H](O)[C@H]2Nc1cc(C(F)(F)F)cc(C(F)(F)F)c1` (stereo partly drawn), for which the GI50 in the test with MDA-MB-435 is 3.42 µM (inactive); with HCC 2998, 3.38 µM (inactive); in the test with EKVX it was 3.83 µM (inactive); with SF-539 it was 4.66 µM (inactive); in the test on M14, 4.06 µM (inactive); in the test with BT-549 it was 3.91 µM (inactive). In addition, the GI50 in the test on U-251 was 4.15 µM (inactive); in the test on NCI-H23, 2.36 µM (inactive); in the test on NCI-H226, 6.5 µM (inactive); with UO-31, 3.51 µM (inactive); with NCI/ADR-RES, 3.07 µM (inactive); with COLO 205, 1.79 µM (inactive). For the same molecule, the GI50 in the test with T47D is 2.59 µM (inactive); in the test with CAKI-1, 3.76 µM (inactive); in the test on MDA-MB-231, 4.53 µM (inactive).

Turning to `CSc1nc2c(c(=O)n1C)N=C(c1ccc(Cl)cc1)CC(c1ccccc1)N2` (stereo not drawn), the GI50 with MDA-MB-435 is 34.4 µM (inactive); in the test on HCC 2998, 24.6 µM (inactive); with EKVX, 20.9 µM (inactive); in the test with SF-539 it was 17.9 µM (inactive); in the test on M14 it was 17.5 µM (inactive); with BT-549, 24.9 µM (inactive). The GI50 was 40.8 µM (inactive) in the test with U-251; 24.1 µM (inactive) in the test with NCI-H23; 17.6 µM (inactive) in the test on NCI-H226; 24.5 µM (inactive) in the test with UO-31; 17.4 µM (inactive) with NCI/ADR-RES; 21.7 µM (inactive) with COLO 205. The GI50 was 24.4 µM (inactive) in the test with CAKI-1 and 11.9 µM (inactive) in the test with MDA-MB-231.

Consider `CCCc1[nH]c2ccccc2c1-c1c(CCC)[nH]c2ccccc12`, for which the GI50 in the test with MDA-MB-435 was 11.9 µM (inactive); in the test with HCC 2998 it was 22.9 µM (inactive); in the test on EKVX, 16.8 µM (inactive); with SF-539 it was 8.36 µM (inactive); with M14, 12.6 µM (inactive); in the test with BT-549, 13.9 µM (inactive). The GI50 with U-251 is 6.71 µM (inactive); in the test on NCI-H23, 8.05 µM (inactive); in the test with NCI-H226, 19.2 µM (inactive); with UO-31, 16.7 µM (inactive); in the test with NCI/ADR-RES it was 10.1 µM (inactive); with COLO 205, 17.9 µM (inactive). The GI50 in the test on CAKI-1 is 18.6 µM (inactive); in the test with MDA-MB-231, 15.3 µM (inactive); in the test on Hs-578T, 6.95 µM (inactive).

Consider `CC(C)=C[C@@H]1C[C@H](C)[C@H]2CC[C@H](C)[C@H]3C(=O)C(O)=C(C)C(=O)[C@]123`, for which the GI50 in the test on MDA-MB-435, in the test with HCC 2998, in the test with EKVX, in the test on SF-539, in the test on M14 and in the test with BT-549 was > 100 µM (inactive) throughout. For the same molecule, the GI50 with U-251 is > 100 µM (inactive); with NCI-H23 it was > 100 µM (inactive); in the test on NCI-H226 it was 87.3 µM (inactive); in the test on UO-31 it was > 100 µM (inactive); in the test with NCI/ADR-RES, > 100 µM (inactive); in the test with COLO 205, > 100 µM (inactive). In addition, the GI50 in the test on CAKI-1, in the test with MDA-MB-231 and in the test on Hs-578T was > 100 µM (inactive) throughout.

Regarding `CCC1C(=O)C[C@H]2[C@@H]3C(O)CC4=CC(=O)CC[C@]4(C)[C@H]3CC[C@]12C` (stereo partly drawn), the GI50 in the test on MDA-MB-435, with HCC 2998, in the test with EKVX, in the test with SF-539, in the test on M14 and with U-251 was > 50 µM (inactive) each time. Besides, the GI50 with NCI-H23, in the test on UO-31, in the test with NCI/ADR-RES, in the test on COLO 205, with T47D and in the test with CAKI-1 was > 50 µM (inactive) each time. Besides, the GI50 in the test on MDA-MB-231 and in the test with Hs-578T was > 50 µM (inactive) in each case.

As for `C/C(CC(O)(C(F)(F)F)C(F)(F)F)=N/Nc1ccc([N+](=O)[O-])cc1[N+](=O)[O-]`, the GI50 is 3.15 µM (inactive) with MDA-MB-435; 3.6 µM (inactive) in the test on HCC 2998; 2.26 µM (inactive) in the test with EKVX; 3.78 µM (inactive) in the test with SF-539; 3.61 µM (inactive) with M14; 2.67 µM (inactive) in the test with U-251. In addition, the GI50 in the test on NCI-H23 was 2.46 µM (inactive); with NCI-H226, 2.06 µM (inactive); in the test on UO-31, 2.32 µM (inactive); with NCI/ADR-RES, 2.85 µM (inactive); in the test on COLO 205 it was 2.05 µM (inactive); in the test on T47D it was 1.08 µM (active). Moreover, the values for the GI50 with CAKI-1, in the test with MDA-MB-231 and with Hs-578T were 2.24 µM (inactive), 2.28 µM (inactive) and 2.81 µM (inactive), respectively.

Turning to `O=C1NC(=O)C(CC2CCCCCCCCCCC2=O)C(=O)N1` (stereo not drawn), the GI50 in the test on MDA-MB-435, in the test with HCC 2998, with EKVX, with SF-539, in the test with M14 and in the test on BT-549 was > 100 µM (inactive) each time. The GI50 is > 100 µM (inactive) with U-251; > 100 µM (inactive) in the test on NCI-H23; > 100 µM (inactive) with NCI-H226; 74 µM (inactive) in the test on UO-31; > 100 µM (inactive) with NCI/ADR-RES; > 100 µM (inactive) in the test on COLO 205. Also, the GI50 with CAKI-1, in the test with MDA-MB-231 and in the test on Hs-578T was > 100 µM (inactive) each time.

As for `COc1ccc(-c2oc3cc(-c4cc5oc(-c6ccc(OC)cc6)c(-c6ccc(OC)cc6)c5cc4OC)c(OC)cc3c2-c2ccc(OC)cc2)cc1`, the GI50 in the test with MDA-MB-435, in the test on HCC 2998, in the test on EKVX, in the test with SF-539, with M14 and with BT-549 was > 100 µM (inactive) throughout. The GI50 in the test on U-251, in the test with NCI-H23, with NCI-H226, in the test on UO-31, with NCI/ADR-RES and with COLO 205 was > 100 µM (inactive) throughout. Moreover, the GI50 in the test with CAKI-1, in the test on MDA-MB-231 and in the test on Hs-578T was > 100 µM (inactive) each time.
